Measured values: patent publication US4317823A, “Pyrazolobenzodiazepinones, their intermediates, their compositions and their use” (Byk Gulden Lomberg Chemische Fabrik GmbH, priority 1979, dated 1982)

Tests used:
[1] = tested on: Shay rats; assay: Anti-ulcerogenic action (protective action on the stomach), Shay rats: pylorus ligature plus oral acetylsalicylic acid, ulcer index; type: in vivo; conditions: for TQ LD50/ED50 (therapeutic quotient): LD50 i.v. mice / ED50 p.o. rats; for ED50: Rattus norvegicus, Shay rats, oral 1 hour before pylorus ligature, dose which reduces the ulcer index by 50% compared with the control group, read-out: Protective action on the stomach ED50 administered perorally to rats; for dose dependence of the anti-ulcerogenic action (dose/action curve): Shay model
Description: ED50 = the dose which reduces the ulcer index for the group treated
by 50% compared with the control group
The anti-ulcerogenic action is tested by a method using the so-called Shay rats:
(§1) Ulcers are provoked in rats which have been starved for 24 hours (female rats, 180 to 200 g, 4 animals in a cage with a high grille) by means of a pylorus ligature (under anaesthesia with diethyl ether) and oral administration of 100 mg/10 ml/kg of acetylsalicylic acid. The substances to be tested are administered orally (10 ml/kg) 1 hour before the pylorus ligature. The closure of the wound is effected by means of Michel's clips. The animals are killed 4 hours afterwards under ether anaesthesia by dislocating the atlas, and the stomach is cut out. The stomach is opened longitudinally and is fixed on a cork slab, the quantity of gastric juice secreted (volume) having been determined beforehand; the number and size (=diameter) of ulcers present are determined by means of a stereomicroscope at a 10-fold magnification. The product of the degree of severity (in accordance with the following rating scale) and the number of the ulcers is used as an individual ulcer index.
ulcer diameter 0.1-1.4 mm 1
The reduction in the average ulcer index in each group treated compared with that of the control group (=100%) is used as a measure of the anti-ulcerogenic effect. The ED50 indicates the dose which reduces the average ulcer index by 50%.

[2] = tested on: stomach secretion; assay: Inhibition of stomach secretion (gastric juice volume) in rats; type: in vivo, rat; conditions: 4 hours after administration of the antiulcerogenic ED50
Description: *% inhibition = inhibition (in %) of stomach secretion 4 hours after
administration of the antiulcerogenic ED50
as §1

[3] = Determination of toxicity, intravenous LD50 in mice; conditions: mouse, in vivo, female NMRI mice, 7 days observation, 5 animals per dose, read-out: Toxicity LD50 administered intravenously to mice
Description: LD50 = the dose at which 50% of the animals die
The toxicity investigations are carried out on female NMRI mice (body weight 22 to 26 g). The animals (5 animals per dose) receive feed and water ad lib. Various doses of the substances are administered intravenously (duration of injection 1 minute). The observation period is 7 days. The LD50 (the dose at which 50% of the animals die) is determined by means of a linear regression.

Row | SMILES | TQ LD50/ED50 (therapeutic quotient) [1] | ED50 [1] | increase in the anti-ulcerogenic action above the ED50 ([1]; even at 300 mg/kg) | dose dependence of the anti-ulcerogenic action (dose/action curve) ([1]; rats) | % inhibition of stomach secretion in rats [2] | inhibitory effect (anti-ulcerogenic action) ([1]; rats, 30 mg/kg) | LD50 at 168 h [3]
1 | CC1(C)[C@@H](OC(=O)CCC(=O)O)CC[C@]2(C)[C@H]3C(=O)C=C4[C@@H]5C[C@@](C)(C(=O)O)CC[C@]5(C)CC[C@@]4(C)[C@]3(C)CC[C@@H]12 [Compound 1, carbenoxolone, reference compound] | 4.1 | ~70 mg/kg | not possible to achieve any substantial increase in the anti-ulcerogenic action | flattens out very considerably | 7% | – | –
2 | Cc1nn(C)c2c1N(C(=O)CN1CCN(C)CC1)c1ccccc1NC2=O [Compound 2, 1,3-dimethyl-4-[(4-methylpiperazin-1-yl)acetyl]-1,4,9,10-tetrahydropyrazolo[4,3-b][1,5]benzodiazepin-10-one] | 84.0 | 2.5 mg/kg | – | depends strictly on the dose | 20% | up to 95% | 210 mg/kg
